≈ marks a conversion by molar mass, not a printed value. Read-outs that look alike come from different tables or passages of the source. Some results are limits rather than exact numbers.

In data set [1] the target is T1, beta-catenin/TCF4 engagement (Homo sapiens, UniProt P35222).
T1 construct: expressed in transfected cells; host or cells: HEK293
T1 sequence (P35222 1-781): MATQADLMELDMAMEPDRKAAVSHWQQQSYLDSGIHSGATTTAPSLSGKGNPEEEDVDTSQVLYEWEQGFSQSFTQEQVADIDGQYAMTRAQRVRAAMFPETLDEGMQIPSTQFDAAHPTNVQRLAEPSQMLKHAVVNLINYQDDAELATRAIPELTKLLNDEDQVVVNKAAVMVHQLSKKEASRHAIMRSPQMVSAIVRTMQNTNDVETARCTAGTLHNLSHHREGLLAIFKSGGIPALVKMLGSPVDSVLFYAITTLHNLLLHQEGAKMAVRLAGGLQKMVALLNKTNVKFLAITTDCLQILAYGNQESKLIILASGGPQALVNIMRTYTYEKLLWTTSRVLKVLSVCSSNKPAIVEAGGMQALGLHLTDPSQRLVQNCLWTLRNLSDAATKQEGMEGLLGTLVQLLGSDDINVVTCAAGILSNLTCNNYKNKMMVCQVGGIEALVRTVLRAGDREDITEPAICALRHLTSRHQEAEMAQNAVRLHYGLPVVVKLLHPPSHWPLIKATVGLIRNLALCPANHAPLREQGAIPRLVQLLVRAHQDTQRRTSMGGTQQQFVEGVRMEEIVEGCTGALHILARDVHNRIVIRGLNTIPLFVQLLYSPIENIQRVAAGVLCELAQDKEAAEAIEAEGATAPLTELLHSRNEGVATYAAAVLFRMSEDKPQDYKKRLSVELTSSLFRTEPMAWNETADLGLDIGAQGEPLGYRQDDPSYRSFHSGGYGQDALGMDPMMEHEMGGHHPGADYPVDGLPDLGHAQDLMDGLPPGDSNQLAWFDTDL
Description: Nano-BRET target engagement assay (B-cat-Halo & TCF4-Luc in HEK293 cells). It counts as cell-based. Particulars: for inhibition at 10 µM: read-out: NanoBRET % inh @ 10 uM; for IC50: absolute IC50. A general note: Bioluminescence resonance energy transfer reports proximity on the nanometre scale.

A short description of a further data set: CHI Log D procedure. It counts as physicochemical.
A short description of the next data set: Solubility in PBS. Type of data set: physicochemical. In short, it runs like this: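 Read-out is the HPLC peak area of the supernatant from ultracentrifuged PBS solution, scaled against a 50 μM peptide DMSO injection; value reported as [(PBS area)/(DMSO area)]*50 uM.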
Data set [2] addresses T2, full-length beta-Catenin (Uniprot ID P35222) (Homo sapiens, UniProt P35222).
T2 construct: 10 nM full-length beta-Catenin (Uniprot ID P35222)
T2 sequence (P35222 1-781): T1 sequence (P35222 1-781)
Description: Fluorescence polarization IC50 (beta-catenin / 5FAM-TCF4 10-53 competition). Type of data set: binding. The note with it: fluorescence polarization. A general note: Polarisation of emitted light reports the rotation of a fluorescent probe.

[3] abbreviates: beta-catenin, read-out: FP EC50.

Broadly, the Solubility is how much of the substance goes into solution per volume. Regarding `CC(=O)N1CCC[C@]12CC=CCCCC1(CCCC=CCCCCCC[C@@](C)(C(=O)N[C@@H](Cc3ccccc3)C(=O)N[C@@H](C)C(=O)N[C@@H](CCC(N)=O)C(N)=O)NC(=O)[C@H](C(C)C)NC(=O)[C@H](Cc3ccccc3)NC(=O)[C@H](C)NC(=O)[C@H](C)NC(=O)[C@H](CC(=O)O)NC(=O)[C@H](CC(=O)O)NC1=O)NC(=O)[C@H](C)NC(=O)[C@H](CC(=O)O)NC2=O` (stereo partly drawn) [I-357, Ac-PL3-Asp-Ala-B5-Asp-Asp-Ala-Ala-Phe-Val-S8-Phe-Ala-Gln-NH2], the inhibition at 10 µM in data set [1] (HEK293, 10 uM) was -5.3%. Moreover, the “CHI Log D” value in “CHI Log D procedure” (pH 7.4) came out at 1.852. Moreover, the “Solubility” value in the data set “Solubility in PBS” was determined as 46 µM (≈ 76.6 µg/mL).
For orientation: chromatographic logD means lipophilicity estimated from chromatographic retention. The low end stands for lower lipophilicity, the high end for higher lipophilicity. Consider `CC[C@H](C)[C@@H]1NC(=O)[C@H](CC(=O)O)NC(=O)[C@]2(CC=CCCCC3(CCCC=CCCCCCC[C@@](C)(C(=O)N[C@@H](Cc4ccccc4)C(=O)N[C@@H](Cc4csc5ccccc45)C(=O)N[C@@H](CCC(N)=O)C(N)=O)NC(=O)[C@H](CCC(N)=O)NC(=O)[C@H](Cc4ccccc4)NC(=O)[C@H](C)NC(=O)[C@H](C)NC(=O)[C@H](CCC(=O)O)NC(=O)[C@H](CC(=O)O)NC3=O)NC1=O)CCCN2C(C)=O` (stereo partly drawn) [I-407, Ac-PL3-Asp-Ile-B5-Asp-Glu-Ala-Ala-Phe-Gln-S8-Phe-BztA-Gln-NH2], for which the inhibition at 10 µM in data set [1] (HEK293, @ 10 uM) is 55.1%. The chromatographic logD in “CHI Log D procedure” (pH 7.4, CHI Log D) worked out at 2.39. The IC50 in data set [2] (read-out: beta-Catenin FP IC50) is 30 nM. Further, the “Solubility” value in “Solubility in PBS” was 50 µM (≈ 94.2 µg/mL).
For the compound `COc1ccccc1C[C@H](NC(=O)[C@]1(C)CCCCCCC=CCCCC2(CCCC=CC[C@]3(CCCN3C(C)=O)C(=O)N[C@@H](CC(=O)O)C(=O)N[C@@H](C)C(=O)N2)C(=O)N[C@@H](CC(=O)O)C(=O)N[C@@H](CCC(=O)O)C(=O)N[C@@H](C)C(=O)N[C@@H](C)C(=O)N[C@@H](Cc2ccccc2)C(=O)N[C@@H](CC(N)=O)C(=O)N1)C(=O)N[C@@H](Cc1csc2ccccc12)C(=O)N[C@@H](CCC(N)=O)C(N)=O` (stereo partly drawn) [I-437, Ac-PL3-Asp-Ala-B5-Asp-Glu-Ala-Ala-Phe-Asn-S8-2OMeF-BztA-Gln-NH2], the values for the IC50 in data set [1] (read-out: NanoBRET Abs IC50) and in data set [2] (read-out: beta-Catenin FP IC50) were 17.5 µM and 26 nM, respectively. In addition, the chromatographic logD in the data set “CHI Log D procedure” (pH 7.4, CHI Log D) stood at 2. This compound also displayed a Solubility in the data set “Solubility in PBS” (Solubility (uM)) of 44 µM (≈ 81.7 µg/mL).
The matching figures for `CC(=O)N1CCC[C@]12CC=CCCCC1(CCCC=CCCCOC(=O)N3CC[C@@](C(=O)N[C@@H](Cc4ccccc4)C(=O)N[C@@H](Cc4csc5ccccc45)C(=O)N[C@@H](CCC(N)=O)C(N)=O)(C3)NC(=O)[C@H](CC(N)=O)NC(=O)[C@H](Cc3ccccc3)NC(=O)[C@H](C)NC(=O)[C@H](C)NC(=O)[C@H](CCC(=O)O)NC(=O)[C@H](CC(=O)O)NC1=O)NC(=O)[C@H](C)NC(=O)[C@H](CC(=O)O)NC2=O` (stereo partly drawn) [I-462, Ac-PL3-Asp-Ala-B5-Asp-Glu-Ala-Ala-Phe-Asn-PyrS2-Phe-BztA-Gln-NH2]: over 20 µM, 28 nM, 1.76 and 49 µM (≈ 91.6 µg/mL).
As to `CC[C@H](C)[C@@H]1NC(=O)[C@H](CC(=O)O)NC(=O)[C@]2(CC=CCCCC3(CCCC=CCCCCCC[C@@](C)(C(=O)N[C@@H](Cc4ccccc4)C(=O)N[C@@H](Cc4csc5ccccc45)C(=O)N[C@@H](CCC(N)=O)C(N)=O)NC(=O)[C@H](CCC(N)=O)NC(=O)[C@H](Cc4cccs4)NC(=O)[C@H](C)NC(=O)[C@H](C)NC(=O)[C@H](CCC(=O)O)NC(=O)[C@H](CC(=O)O)NC3=O)NC1=O)CCCN2C(C)=O` (stereo partly drawn) [I-485, Ac-PL3-Asp-Ile-B5-Asp-Glu-Ala-Ala-2Thi-Gln-S8-Phe-BztA-Gln-NH2], the IC50 in data set [1] (read-out: NanoBRET Abs IC50) stood at 11.3 µM; in data set [2] (read-out: beta-Catenin FP IC50), 34 nM. The chromatographic logD in “CHI Log D procedure” (pH 7.4, CHI Log D) was determined as 2.3. In addition, the “Solubility” value in the data set “Solubility in PBS” stood at 50 µM (≈ 94.5 µg/mL).
For `CC(=O)N1CCC[C@]12CC=CCCCC1(CCCC=CCCCCCC[C@@](C)(C(=O)N[C@@H](Cc3ccccc3)C(=O)N[C@@H](Cc3csc4ccccc34)C(=O)N[C@@H](Cc3c[nH]cn3)C(N)=O)NC(=O)[C@H](CCC(N)=O)NC(=O)[C@H](Cc3ccccc3)NC(=O)[C@H](C)NC(=O)[C@H](C)NC(=O)[C@H](CCC(=O)O)NC(=O)[C@H](CC(=O)O)NC1=O)NC(=O)[C@H](CC(C)C)NC(=O)[C@H](CC(=O)O)NC2=O` (stereo partly drawn) [I-506, Ac-PL3-Asp-Leu-B5-Asp-Glu-Ala-Ala-Phe-Gln-S8-Phe-BztA-His-NH2], the results for the IC50 in data set [1] (read-out: NanoBRET Abs IC50) and in data set [2] (read-out: beta-Catenin FP IC50) were 8.9 µM and 25 nM, respectively. The same compound registered a chromatographic logD in the data set “CHI Log D procedure” (pH 7.4, CHI Log D) of 2.41. Besides, in “Solubility in PBS”, the “Solubility” value turned out to be 10 µM (≈ 18.9 µg/mL).
The compound `C[C@@H]1NC(=O)[C@H](C)NC(=O)[C@H](CN(CC(=O)O)CC(F)(F)F)NC(=O)[C@H](CC(=O)O)NC(=O)C2(CCCC=CCCCOC(=O)N3CC[C@@](C(=O)N[C@@H](Cc4ccsc4)C(=O)N[C@@H](Cc4csc5ccccc45)C(=O)N[C@@H](CCC(N)=O)C(N)=O)(C3)NC(=O)[C@H](CC(N)=O)NC(=O)[C@H](Cc3ccccc3)NC1=O)CCCC=CC[C@]1(CCCN1C(=O)CN=[N+]=[N-])C(=O)N[C@@H](CC(=O)O)C(=O)N[C@@H](CC(C)(C)C)C(=O)N2` (stereo partly drawn) [I-1054, AzAc-PL3-Asp-Npg-B5-Asp-TfeGA-Ala-Ala-Phe-Asn-PyrS2-3Thi-BztA-Gln-NH2] came in with an IC50 in data set [1] (NanoBRET Abs IC50 (uM)) of over 20 µM. In the data set “CHI Log D procedure” (pH 7.4), this compound returned a chromatographic logD of 2.19. For the same compound, the concentration in solution in “Solubility in PBS” (Solubility) came to 46 µM (≈ 95.2 µg/mL).
In the data set “CHI Log D procedure” (pH 7.4, CHI Log D), `CC(=O)N1CCC[C@]12CC=CCCCC1(CCCC=CCCCOC(=O)N3CC[C@@](C(=O)N[C@@H](Cc4ccsc4)C(=O)N[C@@H](Cc4csc5ccccc45)C(=O)N[C@@H](CCC(N)=O)C(N)=O)(C3)NC(=O)[C@H](CC(N)=O)NC(=O)[C@H](Cc3ccccc3)NC(=O)[C@H](C)NC(=O)[C@H](C)NC(=O)[C@H](CC(=O)O)NC(=O)[C@H](CC(=O)O)NC1=O)NC(=O)[C@H](CC(C)(C)C)NC(=O)C[C@H](CC(=O)O)NC2=O` (stereo partly drawn) [I-1159, Ac-PL3-RbGlu-Npg-B5-Asp-Asp-Ala-Ala-Phe-Asn-PyrS2-3Thi-BztA-Gln-NH2] came in with a chromatographic logD of 1.88. Also, in data set [2] (read-out: beta-Catenin FP IC50), the IC50 was found to be 61 nM. The compound further registered a Solubility in the data set “Solubility in PBS” (Solubility (uM)) of 45 µM (≈ 86.9 µg/mL).
Take `CC(=O)N1CCC[C@]12CC=CCCCC1(CCCC=CCCCCCC[C@@](C)(C(=O)N[C@@H](Cc3ccsc3)C(=O)N[C@@H](Cc3csc4ccccc34)C(=O)N[C@@H](CCC(N)=O)C(N)=O)NC(=O)[C@H](CC(N)=O)NC(=O)[C@H](Cc3ccccc3)NC(=O)[C@H](C)NC(=O)[C@H](C)NC(=O)[C@H](CC(=O)O)NC(=O)[C@H](CC(=O)O)NC1=O)NC(=O)[C@H](CC(C)(C)C)NC(=O)C[C@H](CC(=O)O)NC2=O` (stereo partly drawn) [I-1163, Ac-PL3-RbGlu-Npg-B5-Asp-Asp-Ala-Ala-Phe-Asn-S8-3Thi-BztA-Gln-NH2]: the “CHI Log D” value in “CHI Log D procedure” (pH 7.4) was determined as 2.059. In addition, the IC50 in data set [2] (setting [3]) and in data set [2] (read-out: beta-Catenin FP IC50) was 691 nM each time. Moreover, the “Solubility” value in “Solubility in PBS” amounted to 48 µM (≈ 90.7 µg/mL).
Consider `CC(=O)N1CCC[C@]12CC=CCCCC1(CCCC=CCCCCCC[C@@](C)(C(=O)N[C@@H](Cc3ccsc3)C(=O)N[C@@H](Cc3csc4ccccc34)C(=O)N[C@@H](CCC(N)=O)C(N)=O)NC(=O)[C@H](CC(N)=O)NC(=O)[C@H](Cc3ccccc3)NC(=O)[C@H](C)NC(=O)[C@H](C)NC(=O)[C@H](CC(=O)O)NC(=O)[C@H](CC(=O)O)NC1=O)NC(=O)[C@H](CC(C)(C)C)NC(=O)C[C@H](CC(=O)O)NC2=O` (stereo partly drawn) [I-1164, Ac-PL3-RbGlu-Npg-B5-Asp-Asp-Ala-Ala-Phe-Asn-S8-3Thi-BztA-Gln-NH2], for which the “CHI Log D” value in the data set “CHI Log D procedure” (pH 7.4) is listed as 2.13. For the same compound, the IC50 in data set [2] (setting [3]) and in data set [2] (read-out: beta-Catenin FP IC50) was 162 nM throughout. The “Solubility” value in “Solubility in PBS” was 50 µM (≈ 94.5 µg/mL).

For the origin of these results see patent US20240116985A1, “STAPLED PEPTIDES AND METHODS THEREOF” (priority 2020, published 2024).
